Experimental data reported in patent publication US7638556B2, “Freeze-dried product of N-[o-(p-pivaloyloxy benzenesulfonylamino)benzoyl]glycine monosodium salt tetra-hydrate and a process for the manufacture thereof” (Ono Pharmaceutical Co., Ltd., priority 2000, dated 2009).
Read-outs that look alike come from different tables or passages of the source.

What was measured:
[1] = solubility of compound (I) in water or ethanol; type: physicochemical
Description: However, compound (I) is hardly soluble in water or ethanol; the solubility is 0.4 mg/ml in water, and 6.0 mg/ml in ethanol. Therefore, by normal solvents it is difficult to prepare a clear solution for the process of a high-dosage freeze-dried product.
Compound (I) has, as shown above, a very low solubility; 0.4 mg/ml in water, 6.0 mg/ml in ethanol. In order to obtain a freeze-dried product to prepare a high-dosage product of this compound, it is necessary to improve the solubility.

elastase = biological target: T1, elastase (Homo sapiens, UniProt P08246); conditions: cited from earlier work
T1 sequence (P08246 30-267): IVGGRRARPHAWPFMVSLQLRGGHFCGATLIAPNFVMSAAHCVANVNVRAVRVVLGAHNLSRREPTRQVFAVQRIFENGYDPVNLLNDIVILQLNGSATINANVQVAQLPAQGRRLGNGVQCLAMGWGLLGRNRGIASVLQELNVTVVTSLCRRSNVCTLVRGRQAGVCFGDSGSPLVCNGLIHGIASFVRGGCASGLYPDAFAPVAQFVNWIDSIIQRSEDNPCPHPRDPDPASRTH

[2] = solubility in mixed solvent of ethanol and water by titration until completely dissolved (Example 1); type: physicochemical; conditions: thermodynamic from solid
Description: By the following method, the concentration of compound (I) was measured when compound (I) was completely dissolved in various ratios of mixed solvent comprising water and ethanol.
Above mixed solvent was titrated with various added volume for compound (I) and the mixture was vigorously stirred and was left alone for several minutes.
The above operation was done repeatedly until confirming that the solute was completely dissolved by visual recognition.
Solubility A was given by dividing the amount of solute (mg) with the volume of added solvent (ml) when the solute was completely dissolved; and solubility B was given by dividing the amount of solute with the volume of added solvent before the solute was completely dissolved (mg).
It is judged that the solubility of compound (I) to mixed solvent of ethanol and water is between solubility A and solubility B.

[3] = prior freeze-dried product method using sodium carbonate and water; cited from earlier work

CC(C)(C)C(=O)Oc1ccc(S(=O)(=O)Nc2ccccc2C(=O)NCC(=O)[O-])cc1.[Na+] [compound (I), N-[o-(p-pivaloyloxybenzenesulfonylamino)benzoyl]glycine monosodium salt tetra-hydrate]
solubility ([1]; in water): 400 µg/mL
solubility ([1]; organic solvent or mixture, in ethanol): 6000 µg/mL
inhibitory activity against elastase (elastase): inhibitory activity against elastase
solubility ([2]; aqueous with cosolvent or surfactant or cyclodextrin, ratio of ethanol 10 vol %, read-out: solubility A): 0.83 mg/mL
solubility ([2]; aqueous with cosolvent or surfactant or cyclodextrin, ratio of ethanol 10 vol %, read-out: solubility B): 0.91 mg/mL
solubility ([2]; aqueous with cosolvent or surfactant or cyclodextrin, ratio of ethanol 15 vol %, read-out: solubility A): 0.91 mg/mL
solubility ([2]; aqueous with cosolvent or surfactant or cyclodextrin, ratio of ethanol 15 vol %, read-out: solubility B): 1 mg/mL
solubility ([2]; aqueous with cosolvent or surfactant or cyclodextrin, ratio of ethanol 20 vol %, read-out: solubility A): 1.43 mg/mL
solubility ([2]; aqueous with cosolvent or surfactant or cyclodextrin, ratio of ethanol 20 vol %, read-out: solubility B): 1.67 mg/mL
solubility ([2]; aqueous with cosolvent or surfactant or cyclodextrin, ratio of ethanol 25 vol %, read-out: solubility A): 1.67 mg/mL
solubility ([2]; aqueous with cosolvent or surfactant or cyclodextrin, ratio of ethanol 25 vol %, read-out: solubility B): 2 mg/mL
solubility ([2]; aqueous with cosolvent or surfactant or cyclodextrin, ratio of ethanol 30 vol %, read-out: solubility A): 100 mg/mL
solubility ([2]; aqueous with cosolvent or surfactant or cyclodextrin, ratio of ethanol 30 vol %, read-out: solubility B): 125 mg/mL
solubility ([2]; aqueous with cosolvent or surfactant or cyclodextrin, ratio of ethanol 40 vol %, read-out: solubility A): 125 mg/mL
solubility ([2]; aqueous with cosolvent or surfactant or cyclodextrin, ratio of ethanol 40 vol %, read-out: solubility B): 167 mg/mL
solubility ([2]; aqueous with cosolvent or surfactant or cyclodextrin, ratio of ethanol 50 vol %, read-out: solubility A): 167 mg/mL
solubility ([2]; aqueous with cosolvent or surfactant or cyclodextrin, ratio of ethanol 50 vol %, read-out: solubility B): 250 mg/mL
solubility ([2]; aqueous with cosolvent or surfactant or cyclodextrin, ratio of ethanol 60 vol %, read-out: solubility A): 167 mg/mL
solubility ([2]; aqueous with cosolvent or surfactant or cyclodextrin, ratio of ethanol 60 vol %, read-out: solubility B): 250 mg/mL
solubility ([2]; aqueous with cosolvent or surfactant or cyclodextrin, ratio of ethanol 70 vol %, read-out: solubility A): 125 mg/mL
solubility ([2]; aqueous with cosolvent or surfactant or cyclodextrin, ratio of ethanol 70 vol %, read-out: solubility B): 167 mg/mL
solubility ([2]; aqueous with cosolvent or surfactant or cyclodextrin, ratio of ethanol 80 vol %, read-out: solubility A): 125 mg/mL
solubility ([2]; aqueous with cosolvent or surfactant or cyclodextrin, ratio of ethanol 80 vol %, read-out: solubility B): 167 mg/mL
solubility ([2]; aqueous with cosolvent or surfactant or cyclodextrin, ratio of ethanol 90 vol %, read-out: solubility A): 50 mg/mL
solubility ([2]; organic solvent or mixture, mixed solvent ethanol/water=3.0/7.0~8.0/2.0 (v/v), read-out: solubility): ≥ 80 mg/mL
solubility ([2]; organic solvent or mixture, ratio of ethanol 90 vol %, read-out: solubility B): 55.6 mg/mL
solubility ([2]; organic solvent or mixture, ratio of ethanol 100 vol %, read-out: solubility A): 5 mg/mL
solubility ([2]; organic solvent or mixture, ratio of ethanol 100 vol %, read-out: solubility B): 5.56 mg/mL
solubility ([2]; water, ratio of ethanol 0 vol %, read-out: solubility A): 0.22 mg/mL
solubility ([2]; water, ratio of ethanol 0 vol %, read-out: solubility B): 0.23 mg/mL
solubility [3]: < 80 mg/mL
